Legend:
hEPO mRNA = test: hEPO expression and pharmacokinetic parameters in non-human primates; type: in vivo, Cynomolgus monkeys
Experimental: The tolerability and efficacy of nanoparticle compositions to non-human primates was also investigated using a sample formulation including Compound 18. The formulation was prepared according to the standard MC3 formulation described above and included an hEPO mRNA. Primates were administered a single dose of 0.05 (Group 1), 0.3 (Group 2), or 1.0 (Group 3) mpk via intravenous infusion for 60 minutes. Three primates were administered each dose. Expression of hEPO was measured prior to dosing and at 2, 6, 24, 48, and 96 hours post-treatment (Table 26). Table 28 includes levels of indicators of complement activation, while Table 29 includes cytokine induction data.
The tolerability and efficacy of nanoparticle compositions to non-human primates was also investigated using sample formulations including Compounds 18, 25, 26, and 48 and MC3 to determine if these compounds are differentiated in terms of protein expression. The formulations were prepared according to the standard MC3 formulation described above and included an hEPO mRNA. Table 30 includes details of the compositions tested, while Table 31 summarizes the relative expression of Luc and hEPO mRNA in mice and rats. Expression was measured 6 hours after administration.
As is evident in the figure, expression was highest 6 hours post administration for all formulations tested, and was highest for those formulations including Compound 18.
NHP studies: Nonhuman primate studies were conducted using naïve cynomolgus monkeys (cynos), 2-4 years old, weighing 2-6 kg. No treatment randomization or blinding methods were used for any of the animal studies. Sample sizes were determined by the resource equation method. For injection, mRNA-LNPs in phosphate buffered saline (PBS) were administered by 60-minute intravenous infusion using a temporary indwelling catheter inserted in a peripheral vein.
hEPO ELISA for NHP samples: Human Epo levels were measured using a human erythropoietin immunoassay. Cytokines levels were measured using a non-human primate cytokine kit. […]

[1] = ALT and AST after intravenous administration to rat (Table 19A); type: in vivo
Experimental: Table 19A summarizes the hEPO expression, IP-10 induction, liver and spleen levels, and alanine aminotransferase (ALT) and aspartate aminotransferase (AST) measured upon intravenous administration of formulations including Compounds 48, 49, and 50 to rat at 0.2 and 2 mpk and hEPO mRNA. hEPO concentrations were measured 6 hours after administration, while cytokine induction and liver and spleen levels were measured 48 hours after administration. hEPO and IP-10 concentrations are presented in pg/ml, while liver levels are provided in ng/g. ALT and AST levels are presented in international units.

[2] = hEPO, 0.01 mpk i.v. infusion, non-human primates

## CCCCCCCCCOC(=O)CCCCCCCN(CCO)CCCCCCCC(=O)OC(CCCCCCCC)CCCCCCCC [Compound 18, Heptadecan-9-yl 8-((2-hydroxyethyl)(8-(nonyloxy)-8-oxooctyl)amino)octanoate]
hEPO mRNA; 0.05 mpk i.v. infusion, 2 h
  hEPO concentration: 142588 pg/mL
hEPO mRNA; 0.05 mpk i.v. infusion, 6 h
  hEPO concentration: 379362 pg/mL
hEPO mRNA; 0.05 mpk i.v. infusion, 24 h
  hEPO concentration: 103055 pg/mL
hEPO mRNA; 0.05 mpk i.v. infusion, 48 h
  hEPO concentration: 25382 pg/mL
hEPO mRNA; 0.05 mpk i.v. infusion, 96 h
  hEPO concentration: 2084 pg/mL
hEPO mRNA; 0.05 mpk i.v. infusion, Predose
  hEPO concentration: 1000 pg/mL
hEPO mRNA; 0.3 mpk i.v. infusion, 2 h
  hEPO concentration: 363272 pg/mL
hEPO mRNA; 0.3 mpk i.v. infusion, 6 h
  hEPO concentration: 341285 pg/mL
hEPO mRNA; 0.3 mpk i.v. infusion, 24 h
  hEPO concentration: 148789 pg/mL
hEPO mRNA; 0.3 mpk i.v. infusion, 48 h
  hEPO concentration: 57095 pg/mL
hEPO mRNA; 0.3 mpk i.v. infusion, 96 h
  hEPO concentration: 6095 pg/mL
hEPO mRNA; 0.3 mpk i.v. infusion, Predose
  hEPO concentration: 1000 pg/mL
hEPO mRNA; 1.0 mpk i.v. infusion, 2 h
  hEPO concentration: 312006 pg/mL
hEPO mRNA; 1.0 mpk i.v. infusion, 6 h
  hEPO concentration: 502663 pg/mL
hEPO mRNA; 1.0 mpk i.v. infusion, 24 h
  hEPO concentration: 467598 pg/mL
hEPO mRNA; 1.0 mpk i.v. infusion, 48 h
  hEPO concentration: 175953 pg/mL
hEPO mRNA; 1.0 mpk i.v. infusion, 96 h
  hEPO concentration: 24795 pg/mL
hEPO mRNA; 1.0 mpk i.v. infusion, Predose
  hEPO concentration: 1000 pg/mL
hEPO mRNA; NHP, 0.01 mg/kg, 60 minute intravenous infusion
  exposure of hEPO protein relative to the MC3 LNP control: five-fold higher
hEPO mRNA; [2]
  AUC Lipid/MC3 Ratio: 6.0
hEPO mRNA; naive cynomolgus monkeys, i.v. 0.01 mpk, 60 minutes infusion
  hEPO mRNA expression: highest
hEPO mRNA; non-human primates, comparable doses
  hEPO levels compared with MC3 formulations: higher than those measured upon administration of comparable doses of MC3 formulations

## CCCCCCCCCCCOC(=O)CCCCCN(CCO)CCCCCCCC(=O)OC(CCCCCCCC)CCCCCCCC [Compound 25, Heptadecan-9-yl 8-((2-hydroxyethyl)(6-oxo-6-(undecyloxy)hexyl)amino)octanoate]
hEPO mRNA; [2]
  AUC Lipid/MC3 Ratio: 3.3

## CCCCCCCCCOC(=O)CCCN(CCO)CCCCCCCC(=O)OC(CCCCCCCC)CCCCCCCC [Compound 26, Heptadecan-9-yl 8-((2-hydroxyethyl)(4-(nonyloxy)-4-oxobutyl)amino) octanoate]
hEPO mRNA; [2]
  AUC Lipid/MC3 Ratio: 1.3

## CCCCCCCCC(C)OC(=O)CCCCCCCN(CCO)CCCCCCCC(=O)OC(CCCCCCCC)CCCCCCCC (stereo not drawn) [Compound 48, decan-2-yl 8-((8-(heptadecan-9-yloxy)-8-oxooctyl)(2-hydroxyethyl)amino)octanoate]
hEPO mRNA; [2]
  AUC Lipid/MC3 Ratio: 0.9
[1]; 0.2 mpk
  ALT: 59.6 international units
  AST: 140.8 international units
[1]; 2 mpk
  ALT: 66.0 international units
  AST: 131.2 international units

## CCCCCCCCC(CC)OC(=O)CCCCCCCN(CCO)CCCCCCCC(=O)OC(CCCCCCCC)CCCCCCCC (stereo not drawn) [Compound 49, heptadecan-9-yl 8-((2-hydroxyethyl)(8-oxo-8-(undecan-3-yloxy)octyl)amino)octanoate]
[1]; 0.2 mpk
  ALT: 54.0 international units
  AST: 99.4 international units
[1]; 2 mpk
  ALT: 77.8 international units
  AST: 132.4 international units

## CCCCCCCCC(CCC)OC(=O)CCCCCCCN(CCO)CCCCCCCC(=O)OC(CCCCCCCC)CCCCCCCC (stereo not drawn) [Compound 50, dodecan-4-yl 8-((8-(heptadecan-9-yloxy)-8-oxooctyl)(2-hydroxyethyl)amino)octanoate]
[1]; 0.2 mpk
  ALT: 59.2 international units
  AST: 143.2 international units
[1]; 2 mpk
  ALT: 78.8 international units
  AST: 158.4 international units

## CCCCC/C=C\C/C=C\CCCCCCCCC(CCCCCCCC/C=C\C/C=C\CCCCC)OC(=O)CCCN(C)C [MC3, DLin-MC3-DMA, reference compound]
hEPO mRNA; [2]
  AUC0-t Mean: 284 ng·h/mL
  AUC Lipid/MC3 Ratio: 1.0
  Cmax Mean: 14.1 ng/mL
  Tmax Mean: 8 h
[1]; 0.2 mpk
  ALT: 63.6 international units
  AST: 134.8 international units
[1]; 2 mpk
  ALT: 79.6 international units
  AST: 139.0 international units

From patent publication US12263248B2, “Compounds and compositions for intracellular delivery of therapeutic agents” (ModernaTX, Inc., priority 2018, dated 2025)
